Assay results as given in the NIST ThermoML archive (doi:10.1021/je301029j).
± gives the expanded uncertainty stated by the source.

Key:
[1] = Crystal; DTA
[2] = Molar enthalpy of transition or fusion; settings: Crystal; DSC

In the case of `O=P(CCCO)(CCCO)CCCO` [tris(3-hydroxypropyl)phosphine oxide], the Normal melting temperature [1] is reported as 114.61 ± 0.63 °C and the “Molar enthalpy of transition or fusion” value [2] is reported as 8.18 ± 0.177 kcal/mol.
